# Measured values as given in paper PMC7157554, “Anti-Trypanosomal Proteasome Inhibitors Cure Hemolymphatic and Meningoencephalic Murine Infection Models of African Trypanosomiasis” (Tropical Medicine and Infectious Disease, 2020).
# Read-outs that look alike come from different tables or passages of the source.
# What was measured:
# [1] = Intravenous pharmacokinetics in mouse; format: in vivo; conditions: for T1/2 / Vd: i.v. 5 mg/kg; for T1/2: elimination half-life; for half-life / Vd / clearance: male, BALB/c, iv; for half-life / clearance: 5 mg/kg; for half-life: i.v., read-out: Elimination half-life (converted); for Vd: read-out: Vss
# Protocol: Determination of intravenous (i.v.) and per oral (p.o.) pharmacokinetics (PK) were carried out by using male BALB/c mice. […] To avoid any granular material, the solution was filtered, using a 0.45 μm syringe filter. The filtered solutions were dosed intravenously to mice via the lateral tail vein, at 5 mg/kg, with a dosing volume of 2 mL/kg. For all the p.o. PK studies, compounds were resuspended in 0.5% v/v methyl cellulose in 0.5 % v/v tween 80 solution. For 20 mg/kg dosing, 200 µL of compounds was administered orally to mice. […] Blood samples were collected into heparin microtainers and centrifuged, and then plasma was separated and frozen until analysis. Plasma samples (20 μL) were extracted with acetonitrile:methanol (3:1) containing internal standard. […] The supernatant was transferred to a 96-well analysis plate and analyzed, using optimized LC/MS/MS conditions. For every experiment, 3 mice were used per compound, per dose. The plasma concentration-time profile was obtained by plotting the mean value from the three animals at each time point. Various PK parameters, such as Cmax (maximum concentration), area under curve (AUC) and oral bioavailability (F) for compounds, were calculated by non-compartmental regression analysis, using an in-house fitting program developed at GNF [8]. All the in-life studies were carried out under protocols approved by the Animal Care and Use Committee (IACUC), following animal ethics guidelines of GNF.
# [2] = LogD (measured octanol water co-efficient); format: physicochemical
# [3] = test system: MDR1-MDCK (Multi Drug Resistant 1 overexpressing Madin–Darby canine kidney cells); test: in vitro; conditions: dog
# Protocol: In order to evaluate potential of brain permeability, all three compounds were tested in an MDR1-MDCK permeability assay. […] Those that have a high efflux ratio are generally substrates for Pgp transporters, thereby having a higher propensity to be excluded from the brain. […] To assess directly the TP compounds’ ability to penetrate brain, mice were dosed with compound, and plasma and brains were collected after 5 and 60 min following intravenous dosing.
# [4] = PAMPA (parallel artificial membrane permeability assay); format: in vitro ADME; conditions: FA: fraction absorbed
# Protocol: (§1) Test compounds’ solubility was determined in a high-throughput thermodynamic solubility assay, as described previously. The PAMPA (parallel artificial membrane) assays were carried out, using a standard protocol. Plasma protein binding was determined by using mouse blood, whilst brain tissue binding was determined by using rat brain tissue homogenate. Intrinsic metabolic clearances were determined in mouse liver microsomes, using the compound depletion approach and LC–MS/MS quantification.
# [5] = Brain-to-plasma drug concentration ratio in mice; format: in vivo; conditions: mouse, read-out: B/P Ratio; for Kp at 5 min: 5 min after 1 mg/kg i.v.; for Kp at 60 min: 60 min after 1 mg/kg i.v.
# Protocol: For measurement of the brain-to-plasma drug concentration ratio, mice were dosed intravenously with 1 mg/kg compounds. Mice were euthanized at 5 and 60 min post-dosing, and blood and brains were collected. The compound concentrations in plasma and brains were measured, following the protocol described above.
# [6] = test system: T. b. brucei (GVR35-VSL2); test: Meningoencephalic mouse model (stage 2 HAT efficacy model, GVR35) with bioluminescence imaging; format: in vivo; conditions: for % Cured / Mean Day of Relapse / Mice Cured/Total / Day of Relapse, mice which did not relapse (value in parenthesis): seven days; for Dose that completely cured stage 2 infection: HAT mouse model
# Protocol: The GVR35 mouse CNS model mimics the second (meningoencephalic) stage of African trypanosomiasis. Female CD1 mice (~8 weeks old, from Charles River) were injected intraperitoneally (i.p.) with 3 × 10^4 T. b. brucei (GVR35-VSL2) bloodstream-form parasites. As controls, a group of three untreated mice and another group of three mice treated with diminazene aceturate (DA) were included. […] Mice treated with DA usually relapse after 42 days post-infection. […]
# Blood parasitemia was quantified weekly from day 21/22, by microscopy of blood from the tail vein. Mice were imaged for bioluminescence using an in vivo imaging system (IVIS) prior to treatment on day 21/22, and weekly after treatment, as described previously. Briefly, mice, in groups of three, were injected i.p. with 150 mg of D-luciferin (Promega) per kilogram body weight in PBS and imaged after 10 min, using an IVIS Spectrum (PerkinElmer, Waltham, Massachusetts MA, USA). Living Image Software (PerkinElmer) was used for acquisition and analysis of bioluminescence imaging data. Bioluminescence in the same rectangular region of interest (ROI) on whole-body mouse images was quantified and is shown in total flux (photons per second). Images were cropped to the ROIs and composites of images from representative mice are shown. Uncured mice were euthanized within 1 or 2 days of parasite detection in the blood. Cured mice were euthanized between day 92 and 101 post-infection. All the results from the individual experiments were reported as number of mice cured over total number of mice treated. A Kaplan–Meier plot was used for representing the number of mice cured at different treatment doses.
# T. b. brucei STIB795 = test: Hemolymphatic mouse model (stage 1 HAT efficacy model); format: in vivo; conditions: for % Cured / Mean day of Relapse / Mice Cured/Total: four days; for Minimum efficacious dose: QD dosing for four days, stage 1 model
# Protocol: The T. b. brucei STIB795 acute mouse model mimics the hemolymphatic stage of the sleeping sickness disease. We used six female NMRI mice per experimental group, divided into two cages. Heparinized blood from a donor mouse with approximately 5 × 10^6 per mL parasitemia was suspended in phosphate saline glucose (PSG), to obtain a parasite suspension of […]. Each mouse was injected with 0.25 mL of parasite suspension (10^4 bloodstream forms of T. b. brucei STIB795) intraperitoneally. All compounds were formulated in 0.5% methylcellulose and 0.5% Tween80. Three days post-infection, test compounds were administered orally on four consecutive days, in a volume of 100 µL/10 g. Three mice served as infected–untreated controls. […] Until 31 days post-infection, parasitemia was monitored microscopically by tail-blood examination twice a week. Mice were considered cured when there was no parasitemia detected in the tail blood. All the results from the individual experiments were reported as number of mice cured over total number of mice treated. A Kaplan–Meier plot was used for representing the number of mice cured at different treatment doses.
# [7] = Intrinsic metabolic clearance in mouse liver microsomes; format: in vitro ADME
# Protocol: as §1
# [8] = liver microsomes, read-out: Mouse liver microsomal clearance
compound,measurement,setting,value
Cc1nc(C)c(C(=O)Nc2ccc(F)c(-c3nc4ncc(-c5ccccc5)cn4n3)c2)o1 [GNF3849],T1/2,[1],6.5 H
same,half-life,[1]; plasma,6.5 h
same,Vd,[1]; plasma,1.2 L/kg
same,logD,[2],3.31
same,MDR1-MDCK A–B,[3],4.5
same,MDR1-MDCK B–A,[3],14.1
same,PAMPA Permeability (% FA),[4],96 % FA
same,Kp at 5 min,"[5]; brain and plasma, intravenous",0.22
same,Kp at 60 min,"[5]; brain and plasma, intravenous",0.28
same,% Cured,[6]; 7.5 mg/kg QD oral,0%
same,Mean Day of Relapse,[6]; 7.5 mg/kg QD oral,37 days post infection
same,Mice Cured/Total,[6]; 7.5 mg/kg QD oral,0/6
same,% Cured,[6]; 75 mg/kg QD oral,50%
same,"Day of Relapse, mice which did not relapse (value in parenthesis)",[6]; 75 mg/kg QD oral,> 92 days post infection
same,Mice Cured/Total,[6]; 75 mg/kg QD oral,3/6
same,Mean Day of Relapse,"[6]; 75 mg/kg QD oral, mice which relapsed",60 days post infection
same,Cure outcome,"[6]; 7.5 and 75 mg/kg, once daily",failed to achieve complete cure
same,% Cured,T. b. brucei STIB795; 7.5 mg/kg QD oral,100%
same,Mean day of Relapse,T. b. brucei STIB795; 7.5 mg/kg QD oral,>31 days post infection
same,Mice Cured/Total,T. b. brucei STIB795; 7.5 mg/kg QD oral,6/6
same,% Cured,T. b. brucei STIB795; 25 mg/kg QD oral,100%
same,Mean day of Relapse,T. b. brucei STIB795; 25 mg/kg QD oral,>31 days post infection
same,Mice Cured/Total,T. b. brucei STIB795; 25 mg/kg QD oral,6/6
same,% Cured,T. b. brucei STIB795; 75 mg/kg QD oral,100%
same,Mean day of Relapse,T. b. brucei STIB795; 75 mg/kg QD oral,>31 days post infection
same,Mice Cured/Total,T. b. brucei STIB795; 75 mg/kg QD oral,6/6
same,Cure outcome,"T. b. brucei STIB795; all doses: 7.5, 25 and 75 mg/kg, once daily, for four days",complete cure
same,microsomal CLint,[7]; [8],15.2 µL/min/mg
Cc1nc(C)c(C(=O)Nc2ccc(F)c(-c3nc4ncc(-c5ccccn5)cn4n3)c2)o1 [GNF6702],T1/2,[1],7.0 H
same,Vd,[1]; in vivo,1.2 L/kg
same,clearance,[1]; plasma,2.26 mL/min/kg
same,logD,[2],2.32
same,MDR1-MDCK A–B,[3],8.3
same,MDR1-MDCK B–A,[3],22.1
same,PAMPA Permeability (% FA),[4],92 % FA
same,Kp at 5 min,[5]; in vivo,0.13
same,Kp at 60 min,[5]; in vivo,0.17
same,% Cured,[6]; 3 mg/kg QD oral,0%
same,Mean Day of Relapse,[6]; 3 mg/kg QD oral,47 days post infection
same,% Cured,[6]; 10 mg/kg QD oral,66%
same,"Day of Relapse, mice which did not relapse (value in parenthesis)",[6]; 10 mg/kg QD oral,> 92 days post infection
same,Mean Day of Relapse,"[6]; 10 mg/kg QD oral, mice which relapsed",50 days post infection
same,% Cured,[6]; 30 mg/kg QD oral,100%
same,Mean Day of Relapse,[6]; 30 mg/kg QD oral,>92 days post infection
same,% Cured,[6]; 100 mg/kg QD oral,100%
same,Mean Day of Relapse,[6]; 100 mg/kg QD oral,>92 days post infection
same,Cure outcome,"[6]; 30 and 100 mg/kg, once daily, oral",complete cure
same,Dose that completely cured stage 2 infection,[6],30 mg/kg
same,% Cured,T. b. brucei STIB795; 0.1 mg/kg QD oral,0%
same,Mean day of Relapse,T. b. brucei STIB795; 0.1 mg/kg QD oral,6.83 days post infection
same,% Cured,T. b. brucei STIB795; 0.3 mg/kg QD oral,33.3%
same,Mean day of Relapse,T. b. brucei STIB795; 0.3 mg/kg QD oral,19 days post infection
same,% Cured,T. b. brucei STIB795; 1 mg/kg QD oral,100%
same,Mean day of Relapse,T. b. brucei STIB795; 1 mg/kg QD oral,>31 days post infection
same,% Cured,T. b. brucei STIB795; 3 mg/kg QD oral,100%
same,Mean day of Relapse,T. b. brucei STIB795; 3 mg/kg QD oral,>31 days post infection
same,% Cured,T. b. brucei STIB795; 10 mg/kg QD oral,100%
same,Mean day of Relapse,T. b. brucei STIB795; 10 mg/kg QD oral,>31 days post infection
same,Minimum efficacious dose,T. b. brucei STIB795,1 mg/kg
same,microsomal CLint,[7]; microsomes,34.1 µL/min/mg
Cc1nc(C)c(C(=O)Nc2ccc(F)c(-c3nc4ncc(C(C)(C)C)cn4n3)c2)o1 [NITD689],T1/2,[1],1.6 H
same,clearance,[1]; plasma,13.5 mL/min/kg
same,half-life,[1]; plasma,1.6 h
same,Vd,[1]; plasma,1.5 L/kg
same,logD,[2],3.05
same,MDR1-MDCK A–B,[3],32.6
same,MDR1-MDCK B–A,[3],29.2
same,PAMPA Permeability (% FA),[4],99.1 % FA
same,Kp at 5 min,"[5]; brain and plasma, intravenous",0.12
same,Kp at 60 min,"[5]; brain and plasma, intravenous",0.12
same,% Cured,[6]; 15 mg/kg BID oral,0%
same,Mean Day of Relapse,[6]; 15 mg/kg BID oral,42 days post infection
same,Mice Cured/Total,[6]; 15 mg/kg BID oral,0/6
same,Cure outcome,[6]; 15 mg/kg twice daily and 30 mg/kg once daily,failed to cure
same,% Cured,[6]; 30 mg/kg BID oral,100%
same,Mean Day of Relapse,[6]; 30 mg/kg BID oral,>94 days post infection
same,Mice Cured/Total,[6]; 30 mg/kg BID oral,6/6
same,% Cured,[6]; 30 mg/kg QD oral,0%
same,Mean Day of Relapse,[6]; 30 mg/kg QD oral,50 days post infection
same,Mice Cured/Total,[6]; 30 mg/kg QD oral,0/6
same,Cure outcome,[6]; 30 mg/kg twice daily and 60 mg/kg once daily,complete cure
same,% Cured,[6]; 60 mg/kg QD oral,100%
same,Mean Day of Relapse,[6]; 60 mg/kg QD oral,>94 days post infection
same,Mice Cured/Total,[6]; 60 mg/kg QD oral,6/6
same,Dose that completely cured stage 2 infection,[6],60 mg/kg
same,% Cured,T. b. brucei STIB795; 1 mg/kg QD oral,0%
same,Mean day of Relapse,T. b. brucei STIB795; 1 mg/kg QD oral,19.5 days post infection
same,Mice Cured/Total,T. b. brucei STIB795; 1 mg/kg QD oral,0/6
same,% Cured,T. b. brucei STIB795; 1.5 mg/kg BID oral,16.7%
same,Mean day of Relapse,T. b. brucei STIB795; 1.5 mg/kg BID oral,21 days post infection
same,Mice Cured/Total,T. b. brucei STIB795; 1.5 mg/kg BID oral,1/6
same,% Cured,T. b. brucei STIB795; 3 mg/kg QD oral,50%
same,Mean day of Relapse,T. b. brucei STIB795; 3 mg/kg QD oral,21 days post infection
same,Mice Cured/Total,T. b. brucei STIB795; 3 mg/kg QD oral,3/6
same,% Cured,T. b. brucei STIB795; 10 mg/kg QD oral,100%
same,Mean day of Relapse,T. b. brucei STIB795; 10 mg/kg QD oral,>31 days post infection
same,Mice Cured/Total,T. b. brucei STIB795; 10 mg/kg QD oral,6/6
same,Minimum efficacious dose,T. b. brucei STIB795,10 mg/kg
same,microsomal CLint,[7]; [8],7.41 µL/min/mg
